Reference: PMC9071858, “Comparative Pharmacokinetics of Seven Major Compounds in Normal and Atherosclerosis Mice after Oral Administration of Simiao Yong'an Decoction” (Evidence-based Complementary and Alternative Medicine : eCAM, 2022)

Legend:
[1] = Pharmacokinetic study in atherosclerosis (AS) model ApoE−/− mice after oral administration of SMYAD; format: in vivo, mouse; conditions: AS mice, plasma, SMYAD intragastric 35 g/kg/d for seven days, mean ± SD, n = 5; for AUC(0-t) / AUC(0-inf) / Cmax / half-life / Tmax: male, ApoE−/− on a C57BL/6 background, mouse, po, 35 g/kg/day; for AUC(0-t): read-out: AUC0–t; for AUC(0-inf): read-out: AUC0–∞; for Cmax: read-out: C max; for half-life: read-out: t 1/2 (converted); for Tmax: read-out: t max
Procedure: (§1) Male C57BL/6J mice and ApoE^−/− mice on a C57BL/6 background (7 weeks old, 18–22 g) were purchased from Beijing Vital River Laboratory Animal Technology Co., Ltd. (Beijing, China, Certificate No.: SCXK (Jing) 2016-0006). All the mice were kept in an SPF animal house (Dongzhimen Hospital Affiliated to Beijing University of Chinese Medicine, Certificate No.: SYXK (Jing) 2015-0001) with food and water freely available, 12 h light/dark, and environmental conditions of 22°C–24°C, 50% relative humidity. All protocols of animal experiments were performed in accordance with the National Guidelines for Laboratory Animal Welfare and were approved by the Animal Ethics Committee of Beijing University of Chinese Medicine (NO. BUCM-4-2015071701-3001). High-fat feeding (containing 15% fat and 0.25% cholesterol) was provided by Beijing HFK bioscience CO., LTD. (Beijing, China, Certificate No.: SCXK (Jing) 2014-0018).
The AS model was established by a high-fat diet and perivascular carotid collar placement (PCCP) surgery in the ApoE^−/− mice. After a 7-day adaptive feeding, the mice were given a high-fat diet for 2 weeks; before anesthesia, all ApoE^−/− mice were fasted for 12 hours. During the surgery, the right common carotid artery was exposed, and a silicone cannula (length: 2.5 mm, inner diameter: 0.3 mm) was fixed around the carotid artery (external diameter: about 0.5 mm). Penicillin was injected intraperitoneally for 3 days after surgery to prevent infection. High-fat diet continued for 8 weeks after surgery to establish AS model. Biochemical assays and hematoxylin and eosin (HE) staining were used to evaluate whether AS model was successfully established.
(§2) After successful induction of AS model, SMYAD was administered to NC and AS mice by intragastric gavage at the crude drug dose of 35 g/kg/d for seven days. Blood samples were collected from each mouse in heparinized tubes via the postorbital venous plexus veins at 0, 0.25, 0.5, 1, 2, 4, 6, 8, 10, 12, 18, and 24 h after seven days of drug administration. Then blood samples were immediately centrifuged at 3500 rpm at 4°C for 10 min and the plasma was stored at −80°C until use.
(§3) Each plasma sample (100 μL) was mixed with a threefold volume of methanol and 25 μL IS in a 1.5 mL EP tube. Then the mixture was vortexed for 100 seconds and centrifuged at 12,000 rpm for 10 min at 4°C. The supernatant was transferred to another EP tube and evaporated to dryness under a nitrogen vacuum. The residue was reconstituted with 100 μL of 50% methanol and centrifuged at 15,000 rpm for 15 min. Then the supernatant was transferred to sample vials for the LC-MS analysis.
(§4) A Vanquish UHPLC™ system (Thermo Fisher Scientific Inc., USA) was used for the analysis. Samples were separated on an Atlantis T3 column (4.6 mm × 150 mm, 3 μm; Waters, USA). The column temperature was 40°C. The mobile phase, at 0.4 mL/min, consisted of water containing 0.1% formic acid (v/v, A) and methanol (B). The quantitative analysis gradient program was as follows: 0-1 min, 0 B; 1–6 min, 0–100% B; 6–12 min, 100% B; 12–12.1 min, 100%-0 B; 12.1–15 min, 0 B. The injection volume was 5 μL.
The mass spectrometer Q Exactive HF-X (Thermo Fisher Scientific Inc., USA) system was connected to the UHPLC system via heated electrospray ionization (HESI) and controlled by Xcalibur 4.2 software (Thermo Fisher) that was used for data collection and analysis. The mass spectrometer was operated in a negative ionization mode. The MS parameters were set as follows: probe heater temperature, 350°C; capillary temperature: 320°C; sheath gas (N2) flow rate: 30 arbs; auxiliary gas (N2) flow rate: 10 arbs; spray voltage: 3.2 kV (negative); S-Lens RF level: 55 V; scan mode: full MS (resolution 12000); scan range: m/z 150–1500. The most abundant ions in the spectra were selected for sensitive quantitation ([M-H]^−of chlorogenic acid, angoroside C, liquiritin, isoliquiritigenin, and IS, [M + COOH]^− of harpagide, swertiamarin, and sweroside). […]

[2] = Stability of analytes in QC plasma samples; format: in vitro ADME, mouse; conditions: n = 5
Procedure: All solutions were stored at 4°C.
Stability was evaluated as five replicate QC samples at two concentration levels (see Table 5).

[3] = Pharmacokinetic study in normal control (NC) mice after oral administration of SMYAD; format: in vivo, mouse; conditions: NC mice, plasma, SMYAD intragastric 35 g/kg/d for seven days, mean ± SD, n = 5; for AUC(0-t) / AUC(0-inf) / Cmax / half-life / Tmax: male, C57BL/6J, mouse, po, 35 g/kg/day; for AUC(0-t): read-out: AUC0–t; for AUC(0-inf): read-out: AUC0–∞; for Cmax: read-out: C max; for half-life: read-out: t 1/2 (converted); for Tmax: read-out: t max
Procedure: as §1, §2, §3, §4
The mass spectrometer Q Exactive HF-X (Thermo Fisher Scientific Inc., USA) system was connected to the UHPLC system via heated electrospray ionization (HESI) and controlled by Xcalibur 4.2 software (Thermo Fisher) that was used for data collection and analysis. The mass spectrometer was operated in a negative ionization mode. The MS parameters were set as follows: probe heater temperature, 350°C; capillary temperature: 320°C; sheath gas (N2) flow rate: 30 arbs; auxiliary gas (N2) flow rate: 10 arbs; spray voltage: 3.2 kV (negative); S-Lens RF level: 55 V; scan mode: full MS (resolution 12000); scan range: m/z 150–1500. The most abundant ions in the spectra were selected for sensitive quantitation ([M-H]^−of chlorogenic acid, angoroside C, liquiritin, isoliquiritigenin, and IS, [M + COOH]^− of harpagide, swertiamarin, and sweroside).
The pharmacokinetic parameters, including maximum plasma concentration (Cmax), time corresponding to Cmax (Tmax), terminal elimination half-life (T1/2), area under plasma concentration-time curve (AUC0–t) and area under the plasma concentration-time curve from 0 to infinity time (AUC0–∞), apparent volume of distribution (Vz/F) and clearance (CLz/F), were calculated using the noncompartment model in DAS 2.0 software package (Shanghai, China). GraphPad prism 6.02 (GraphPad Software, USA) was used in the statistical analysis. All values are expressed as mean ± standard error. For the pharmacokinetic parameter values of the NC and AS groups, Student's t-test was employed for data comparisons. P values <0.05 were considered statistically significant.

[4] = high QC level (600 harpagide, 800 chlorogenic acid, 4800 swertiamarin, 1000 sweroside, 200 others ng/ml)
[5] = low QC level ([…] harpagide, 51.2 chlorogenic acid, 307.2 swertiamarin, 64 sweroside, 12.8 others ng/ml)

| Structure (SMILES) | CLz/F [1] | Vz/F [1] | AUC(0-t) [1] | AUC(0-inf) [1] | Cmax [1] | half-life [1] | Tmax [1] | Freeze-thaw stability 3 freeze-thaw cycles Accuracy RE [2, 4] | Freeze-thaw stability 3 freeze-thaw cycles Calc. conc. [2, 4] | Long-term stability −20°C for 30 d Accuracy RE [2, 4] | Long-term stability −20°C for 30 d Calc. conc. [2, 4] | Postpreparative stability 24 h in the autosampler (4°C) Accuracy RE [2, 4] | Postpreparative stability 24 h in the autosampler (4°C) Calc. conc. [2, 4] | Short-term stability 24 h in room temperature (20°C) Accuracy RE [2, 4] | Short-term stability 24 h in room temperature (20°C) Calc. conc. [2, 4] | Freeze-thaw stability 3 freeze-thaw cycles Accuracy RE [2, 5] | Freeze-thaw stability 3 freeze-thaw cycles Calc. conc. [2, 5] | Long-term stability −20°C for 30 d Accuracy RE [2, 5] | Long-term stability −20°C for 30 d Calc. conc. [2, 5] | Postpreparative stability 24 h in the autosampler (4°C) Accuracy RE [2, 5] | further results |
| --- | --- | --- | --- | --- | --- | --- | --- | --- | --- | --- | --- | --- | --- | --- | --- | --- | --- | --- | --- | --- | --- |
| COc1ccc(CCO[C@@H]2O[C@H](CO[C@@H]3OC[C@H](O)[C@H](O)[C@H]3O)[C@@H](OC(=O)/C=C/c3ccc(O)c(OC)c3)[C@H](O[C@@H]3O[C@@H](C)[C@H](O)[C@@H](O)[C@H]3O)[C@H]2O)cc1O [Angoroside C, angoroside C] | 18.79 ± 2.39 L/h/mg | 126.00 ± 102.72 L/mg | 1840 ± 298 ng·h/mL | 1890 ± 226 ng·h/mL | 491 ± 239 ng/mL | 440 ± 281 min | 2.05 ± 1.19 h | −1.74% | 196.52 ± 13.15 ng/mL | −10.51% | 178.97 ± 6.04 ng/mL | −7.27% | 185.46 ± 9.39 ng/mL | 1.92% | 203.84 ± 4.39 ng/mL | 5.68% | 13.53 ± 0.98 ng/mL | 1.73% | 13.02 ± 1.17 ng/mL | 1.70% | Postpreparative stability 24 h in the autosampler (4°C) Calc. conc. [2, 5]: 13.02 ± 1.05 ng/mL; Short-term stability 24 h in room temperature (20°C) Accuracy RE [2, 5]: 4.09%; Short-term stability 24 h in room temperature (20°C) Calc. conc. [2, 5]: 13.32 ± 1.09 ng/mL; CLz/F [3]: 29.75 ± 24.10 L/h/mg; Vz/F [3]: 148.22 ± 76.23 L/mg; AUC(0-t) [3]: 1730 ± 883 ng·h/mL; AUC(0-inf) [3]: 1870 ± 1050 ng·h/mL; Cmax [3]: 289 ± 124 ng/mL; half-life [3]: 444 ± 286 min; Tmax [3]: 0.85 ± 0.62 h |
| C=C[C@H]1[C@H](O[C@@H]2O[C@H](CO)[C@@H](O)[C@H](O)[C@H]2O)OC=C2C(=O)OCC[C@]21O [Swertiamarin, swertiamarin] | 5.70 ± 1.93 L/h/mg | 55.16 ± 45.04 L/mg | 5540 ± 2010 ng·h/mL | 7240 ± 3390 ng·h/mL | 1340 ± 603 ng/mL | 344 ± 114 min | 0.9 ± 0.64 h | 7.37% | 5153.93 ± 132.15 ng/mL | 0.75% | 4835.93 ± 153.29 ng/mL | 3.51% | 4968.64 ± 208.19 ng/mL | 9.88% | 5274.04 ± 147.92 ng/mL | −5.86% | 289.21 ± 13.27 ng/mL | 1.41% | 311.53 ± 14.38 ng/mL | −4.67% | Postpreparative stability 24 h in the autosampler (4°C) Calc. conc. [2, 5]: 292.85 ± 19.45 ng/mL; Short-term stability 24 h in room temperature (20°C) Accuracy RE [2, 5]: −8.88%; Short-term stability 24 h in room temperature (20°C) Calc. conc. [2, 5]: 279.92 ± 15.61 ng/mL; CLz/F [3]: 5.82 ± 2.64 L/h/mg; Vz/F [3]: 20.82 ± 11.26 L/mg; AUC(0-t) [3]: 5350 ± 1180 ng·h/mL; AUC(0-inf) [3]: 5400 ± 1240 ng·h/mL; Cmax [3]: 1430 ± 636 ng/mL; half-life [3]: 266 ± 124 min; Tmax [3]: 5 ± 4.97 h |
